Laboratory results taken from US6787551B2, “Thiazolidinedione derivatives and pharmaceutical composition comprising the same” (Chong Kun Dang Pharmaceutical Corporation, priority 2002, dated 2004).
Read-outs that look alike come from different tables or passages of the source.

Assays:
[1] = test system: differentiated 3T3-L1 cell; test: 2-Deoxy-D-[2,6-3H] glucose uptake assay; type: cell-based; settings: differentiated 3T3-L1 cells, 24 h with compound, 0.5 nM insulin, concentration giving 50% of maximum enhancement of insulin activation, read-out: 2-deoxyglucose uptake (EC50 nM)
Experimental: 1) 2-Deoxy-D-[2,6-3H] glucose uptake assay (in differentiated 3T3-L1 cell)
Undifferentiated adipocyte 3T3-L1 cells were inoculated in a 24-well plate and cultivated in a CO2 incubator at 37° C. To induce differentiation of the undifferentiated adipocytes, the cells were then incubated in a differentiation medium. After adding a certain concentration of each of the test compounds to the medium, the cells were again incubated for 24 hours. After removing the medium, the cells were washed with phosphate buffer, and 0.5 nM of insulin in phosphate buffer was added to the washed cells, followed by incubation for 40 minutes. Then, 0.5 uCi of 2-deoxy-D-[2,6-3H] glucose per well was again added to the cells, which were let stand for 4 minutes. Then, the cells were washed with phosphate buffer, and cell lysis buffer was added, so as to dissolve the cell membranes. The cell sample was placed into a liquid scintillation cocktail solution. The radioactivity of the sample was counted by a liquid scintillation counter.

3T3-L1 cells = test: Triglyceride accumulation assay; type: cell-based; settings: 4 days with compound, concentration giving 50% of maximum enhancement of rosiglitazone activation
Experimental: 2) Triglyceride accumulation assay (in 3T3-L1 cells)
Undifferentiated adipocyte 3T3-L1 cells were inoculated in a 24-well plate and cultivated in a CO2 incubator at 37° C. To induce differentiation of the undifferentiated adipocytes, the cells were then incubated in a differentiation medium for 48 hours. After adding a certain concentration of each of the test compounds to the differentiation medium, the cells were again incubated for 4 days. Then, the final cell sample was placed into 200 μl of 2-propanol. The amount of triglyceride in the cells were measured by Triglyceride Kit [YEONGDONG PHARMACEUTICAL CO. LTD., Korea] commercially available.

[2] = test system: mice with diabetes (KK/Ay); test: Blood glucose- and blood lipid-lowering action in mice with diabetes; type: in vivo; settings: male KK/Ay mice, daily oral administration for 5 days; for Blood glucose (ED25): dose reducing blood glucose by 25%; for Triglyceride (ED25): dose reducing triglyceride by 25%
Experimental: Male mice with diabetes (KK/Ay: 10 weeks old, 5 animals/group) were housed and given free access to water and food. The animals received a daily oral administration of the test compounds for 5 days. After the last dose, a blood sample was drawn via the orbital sinus.
The plasma was analyzed for blood glucose content using the Glucose-E kit (YEONGDONG PHARMACEUTICAL CO. LTD., Korea), and for triglyceride content using the Triglyceride kit (YEONGDONG PHARMACEUTICAL CO. LTD., Korea).

[3] = test system: primary cultured rat hepatocytes
Experimental: (§1) Hepatocytes isolated from rat were inoculated in a collagen-coated 24 well plate and was incubated in a CO2 incubator at 37° C. for 24 hours. Then, a certain concentration of each of the test compounds was added, and the cells were again incubated for 24 hours. The cells were then incubated in a 0.4% neutral red containing medium for 4 hours and washed once with phosphate buffer. 0.5 ml of a solution of 1% acetic acid-50% ethanol was added to the cells, which were let stand. 200 ul of the cell sample was taken and absorbance was measured at 570 nm. The cytotoxicity assay performed on hepatocytes was measured as 25% toxic concentration (TC25, uM). Then, the safety index, i.e. the TC25 value in the cytotoxicity assay in hepatocyte/the EC50 value in the triglyceride accumulation assay, was calculated.

[4] = test system: primary cultured rat hepatocytes; test: Cytotoxicity assay in primary cultured rat hepatocytes (neutral red); settings: for Safety index (TC25 nM/EC50 nM): TC25 in hepatocyte cytotoxicity assay / EC50 in triglyceride accumulation assay; for Cytotoxicity in hepatocyte (TC25 uM): primary rat hepatocytes, 24 h, neutral red, 25% toxic concentration
Experimental: as §1

Molecule | EC50 [1] [nM] | EC50 (3T3-L1 cells) [nM] | Blood glucose (ED25) [2] [mg/kg] | Triglyceride (ED25) [2] | Cytotoxicity in hepatocyte (TC25 uM) [3] [nM] | Safety index (TC25 nM/EC50 nM) [3] | Safety index (TC25 nM/EC50 nM) [4] | Cytotoxicity in hepatocyte (TC25 uM) [4] [nM] | EC50 ([1]; Mus musculus) [nM] | EC50 (3T3-L1 cells; Mus musculus, 96 h) [nM]
5-(4-[2-(N-methyl-N-(2-(4-thiophenoxy)pyridinyl)amino)ethoxy]benzyl)-2,4-thiazolidinedione [Ex. 37] | 2.8 | 1.2 | 0.22 | 1.4 mg/kg | 95000 | 79167 | – | – | – | –
5-(4-[2(N-methyl-N-(6-(4-anilinyl)pyrimidinyl)amino)ethoxy]benzyl)-2,4-thiazolidinedione [Ex. 21] | 12.8 | 7.5 | 2.6 | 6.2 mg/kg | 81000 | 10800 | – | – | – | –
5-(4-[2-(N-methyl-N-(2-(4-anilinyl)pyridinyl)amino)ethoxy]benzylidene)-2,4-thiazolidinedione [Ex. 19] | 48.2 | 20.1 | 3.8 | 15.6 mg/kg | 81000 | 4030 | – | – | – | –
5-(4-[2(N-methyl-N-(6-(4-thiophenoxy)pyrimidinyl)amino)ethoxy]benzyl)-2,4-thiazolidinedione [Ex. 32] | 5.9 | 3.2 | 1.5 | 12.3 mg/kg | 89000 | 27813 | – | – | – | –
CN(CCOc1ccc(CC2SC(=O)NC2=O)cc1)c1cc(Oc2ccccc2)ncn1 (stereo not drawn) [Ex. 20, 5-(4-[2-(N-methyl-N-(6-(4-phenoxy)pyrimidinyl)amino)ethoxy]benzyl)-2,4-thiazolidinedione] | 7.5 | 2.7 | 0.22 | 1.2 mg/kg | – | – | 29630 | 80000 | – | –
CN(CCOc1ccc(CC2SC(=O)NC2=O)cc1)c1ccccn1 (stereo not drawn) [Rosiglitazone, reference compound] | – | – | 4.1 | More than 30 mg/kg | – | – | 1489 | 70000 | 75 | 47
CCc1ccc(Oc2cc(N(C)CCOc3ccc(C=C4SC(=O)NC4=O)cc3)ncn2)cc1 [Ex. 9, 5-(4-[2-(N-methyl-N-(6-(4-(4-ethyl)phenoxy)pyrimidinyl)amino)ethoxy]benzylidene)-2,4-thiazolidinedione] | 55.2 | 29.9 | 4.1 | 29 mg/kg | – | – | 3010 | 90000 | – | –
5-(4-[2-(N-methyl-N-(2-(4-anilinyl)pyridinyl)amino)ethoxy]benzyl)-2,4-thiazolidinedione [Ex. 38] | 10.5 | 5.5 | 1.5 | 7.8 mg/kg | 71000 | 12909 | – | – | – | –
